Reference: patent US5935790A, “Method for detecting a predisposition to susceptibility to toxic effects of drugs and poisons” (Rutgers, The State University of New Jersey, priority 1997, dated 1999)
Like-named read-outs stand apart in the source and are kept apart here.

Experiments:
arylsulfatase A (ASA) = arylsulfatase A (ASA) (Homo sapiens, UniProt P15289); details: fibroblasts
Description: FIG. 2. The effect of lead acetate on intracellular ASA enzymic activity in cultured human fibroblasts. Fibroblasts were grown in vitro as monolayer cultures in the absence or presence of different concentrations of lead acetate as described in the text. The cells were dissolved in buffer containing detergent and the enzymic activity of ASA and other lysosomal enzymes and protein concentration were determined. The data are expressed relative to the control and the s.e.m. at each concentration of lead is indicated.
The potential effect of lead on cellular levels of ASA was examined in an in vitro system employing human fibroblasts. […] Fibroblast cultures were derived from punch biopsies and maintained in glutamine/penicillin/streptomycin/fetal bovine serum supplemented EMEM or in the same supplemented medium containing 0.5. 5.0. or 20 μM lead acetate. These cultures were split every three cell cycles for a total of 6-12 cell divisions. Fibroblasts in logarithmic growth were washed with PBS and dissolved in 1 mL of PBS containing 0.1% Triton X-100. This suspension was centriftiged for 5 min at 12,000 ×g and the supernatant was employed for determination of ASA and arylsulfatase B (ASB) activities using p-nitrocatechol sulfate as described by Baum et al. [Clin. Chim. Acta 4:453-455 (1959)] and β-galactosidase [Poretz et al., supra]. Each assay was performed in triplicate, and the complete experiment was repeated three times on different occasions for evaluating the effect of lead on cellular levels of ASA.

partially purified ASA = partially purified ASA (Homo sapiens, UniProt P15289)
Sequence of partially purified ASA (P15289 19-507): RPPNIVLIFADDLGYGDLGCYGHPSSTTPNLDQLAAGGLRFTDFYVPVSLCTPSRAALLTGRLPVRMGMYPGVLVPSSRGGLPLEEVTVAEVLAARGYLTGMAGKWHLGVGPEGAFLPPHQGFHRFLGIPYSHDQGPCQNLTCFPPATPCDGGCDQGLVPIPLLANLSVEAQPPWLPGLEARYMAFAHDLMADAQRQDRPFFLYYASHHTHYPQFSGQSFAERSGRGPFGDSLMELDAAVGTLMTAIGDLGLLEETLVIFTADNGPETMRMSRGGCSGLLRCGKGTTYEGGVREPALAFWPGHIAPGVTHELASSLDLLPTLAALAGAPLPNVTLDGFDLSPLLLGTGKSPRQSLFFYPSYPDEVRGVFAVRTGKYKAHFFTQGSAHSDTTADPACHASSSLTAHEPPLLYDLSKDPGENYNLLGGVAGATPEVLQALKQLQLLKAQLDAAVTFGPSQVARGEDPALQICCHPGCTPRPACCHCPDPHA
Description: FIG. 3. […] A preparation of partially purified human fibroblast ASA containing other lysosomal hydrolases was incubated for 1 hr at 4° C. in the presence of lead acetate as described in the text. ASA and other hydrolase enzymic activities were determined. The data are expressed relative to the control and the s.e.m at each concentration of lead is indicated.
(§1) The direct effect of lead on ASA activity was also studied. […] Human fibroblast ASA was enriched in a preparation of isolated lysosomal enzymes as described by Gorman and Poretz [J. Cell. Physiol. 131:158-164 (1987)]. Lead acetate in buffer was added to protein preparations containing approximately 2 units of ASA activity in a total volume of 2.0 ml and incubated at 4° C. A control lacking lead was also prepared in an identical fashion. Aliquots were removed at 30 min, 1 hr, 24 hr, and 48 hr and analyzed for ASA, β-galactosidase and β-hexosaminidaseactivities. Enzymic and protein analyses were performed in triplicate, and the complete experiment was repeated three times.

β-galactosidase = details: similar conditions as for ASA
Description: as §1

β-hexosaminidase = details: every concentration of metal studied
Description: as §1

ASA = details: daily i.p. 100 mg/kg body weight, cited from earlier work
isolated lysosomes = details: cited from earlier work
rat fibroblasts = details: lead nitrate in the growth medium; cited from earlier work

Sequence of arylsulfatase A (ASA) (P15289 19-507): as above

Row | SMILES | amount of ASA relative to control cells grown without lead (arylsulfatase A (ASA)) | reduction of cellular ASA activity (arylsulfatase A (ASA)) | reduction of cellular ASA specific activity (arylsulfatase A (ASA); 0.5 µM) | decrease of ASA lysosomal enzyme activity vs cells in normal medium (arylsulfatase A (ASA); 20 µM) | loss of ASA activity (partially purified ASA; 200 μM lead acetate, 4° C., p=0.045) | time of maximum effect on ASA activity (partially purified ASA; 4° C., unchanged up to 48 hr) | effect on partially purified ASA (partially purified ASA; 100-200 μM lead acetate) | effect on β-galactosidase activity (β-galactosidase) | effect on β-hexosaminidase activity (β-hexosaminidase) | reduction in ASA activity vs control animals (ASA; rat kidney) | reduction in ASA activity vs control animals (ASA; rat liver) | decrease in stability of the lysosome (isolated lysosomes) | facilitated calcium transport by isolated lysosomes (isolated lysosomes; lead as low as 300 μM, concentration dependent) | lysosomal membrane stability (rat fibroblasts)
1 | CC(=O)[O-].CC(=O)[O-].[Pb+2] [lead acetate] | ≥ 65% | 32-36% | 14% | 32-36% | 67% | 1 h | precipitation of the enzyme and loss of enzymic activity | no reduction | closely paralleled that for ASA activity | 20% | 55% | greater than 200 fold | markedly increased | 
2 | O=[N+]([O-])[O-].O=[N+]([O-])[O-].[Pb+2] [lead nitrate] |  |  |  |  |  |  |  |  |  |  |  |  |  | reduction in lysosomal membrane stability
